These results are taken from patent US11040035B2, “3-oxo-2,6-diphenyl-2,3-dihydropyridazine-4-carboxamides” (BAYER PHARMA AKTIENGESELLSCHAFT, priority 2016, dated 2021).

Molecules are shown by their SMILES. Bounds are passed on as bounds.

In assay [1] the target is T1, AHR (Homo sapiens, UniProt P35869).
T1 sequence (P35869 11-848): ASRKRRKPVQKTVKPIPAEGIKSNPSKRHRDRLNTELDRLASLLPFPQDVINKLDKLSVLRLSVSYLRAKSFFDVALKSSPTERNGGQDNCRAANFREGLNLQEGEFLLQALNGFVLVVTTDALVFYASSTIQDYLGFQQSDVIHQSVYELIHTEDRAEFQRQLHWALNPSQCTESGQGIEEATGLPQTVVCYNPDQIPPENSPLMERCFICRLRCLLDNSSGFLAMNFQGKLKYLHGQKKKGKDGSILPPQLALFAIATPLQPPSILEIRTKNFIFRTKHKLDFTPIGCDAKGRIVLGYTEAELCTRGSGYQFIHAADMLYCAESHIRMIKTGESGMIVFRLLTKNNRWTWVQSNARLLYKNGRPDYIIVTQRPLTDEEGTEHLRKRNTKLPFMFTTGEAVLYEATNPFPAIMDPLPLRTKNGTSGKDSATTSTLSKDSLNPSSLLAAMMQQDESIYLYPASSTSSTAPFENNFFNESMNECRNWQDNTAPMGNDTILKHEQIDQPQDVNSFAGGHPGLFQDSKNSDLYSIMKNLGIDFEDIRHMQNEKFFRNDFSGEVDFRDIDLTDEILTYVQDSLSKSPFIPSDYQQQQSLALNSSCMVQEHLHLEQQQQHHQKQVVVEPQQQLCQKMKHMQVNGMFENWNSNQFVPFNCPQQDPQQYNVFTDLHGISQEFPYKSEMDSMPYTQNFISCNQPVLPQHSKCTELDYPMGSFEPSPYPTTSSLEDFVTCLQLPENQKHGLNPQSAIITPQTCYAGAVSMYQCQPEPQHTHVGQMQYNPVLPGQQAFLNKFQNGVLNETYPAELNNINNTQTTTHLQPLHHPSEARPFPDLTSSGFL
Put plainly: In vitro assay 1: antagonism in human cell line (transactivation assay, kynurenic acid prestimulated). The note with it: Assay 1: AHR-luc Hum Antagonism IC50 [M], 150 μM kynurenic acid, 20 hours, firefly luciferase.

Assay [2] has as its target T1, AHR. Put plainly: In vitro assay 2: agonism in human cell line (transactivation assay). As to conditions: Assay 2: AHR-luc Hum Agonism IC50 [M], no kynurenic acid, 20 hours, firefly luciferase.

Take `O=C(NCC1(O)CCCC1)c1cc(-c2ccc(Cl)cc2)nn(-c2cccc(F)c2)c1=O` [Example 326, 6-(4-chlorophenyl)-2-(3-fluorophenyl)-N-[(1-hydroxycyclopentyl)methyl]-3-oxo-2,3-dihydropyridazine-4-carboxamide]: the IC50 against AHR [1] was 6.47e-08 M; on AHR [2], greater than 2e-05 M.

In the case of `CC(NC(=O)c1cc(-c2ccc(Cl)cc2)nn(-c2cccc(F)c2)c1=O)C(O)CO` (stereo not shown) [Example 337, 6-(4-chlorophenyl)-N-(3,4-dihydroxybutan-2-yl)-2-(3-fluorophenyl)-3-oxo-2,3-dihydropyridazine-4-carboxamide], the IC50 on AHR [1] is 4.58e-08 M; on AHR [2] it was greater than 2e-05 M.

Consider `N#Cc1cccc(-n2nc(-c3ccc(Cl)cc3)cc(C(=O)NCC(O)C(F)(F)F)c2=O)c1` (stereo not shown) [Example 362, 6-(4-chlorophenyl)-2-(3-cyanophenyl)-3-oxo-N-(3,3,3-trifluoro-2-hydroxypropyl)-2,3-dihydropyridazine-4-carboxamide], for which the IC50 at AHR [1] was 2.31e-07 M; against AHR [2], greater than 2e-05 M.

`Cc1cccc(-n2nc(-c3ccc(Cl)cc3)cc(C(=O)NCC(O)C(F)(F)F)c2=O)c1` (stereo not shown) [Example 366, 6-(4-chlorophenyl)-2-(3-methylphenyl)-3-oxo-N-(3,3,3-trifluoro-2-hydroxypropyl)-2,3-dihydropyridazine-4-carboxamide]: the figures for the IC50 against AHR [1] and against AHR [2] were 9.7e-07 M and greater than 2e-05 M, respectively.

As for `C[C@@H](CO)NC(=O)c1cc(-c2ccc(Cl)cc2)nn(-c2cccc(C(F)F)c2)c1=O` [Example 370, 6-(4-chlorophenyl)-2-[3-(difluoromethyl)phenyl]-N-[(2S)-1-hydroxypropan-2-yl]-3-oxo-2,3-dihydropyridazine-4-carboxamide], the IC50 is 9.24e-07 M against AHR [1] and greater than 2e-05 M against AHR [2].

Take `O=C(NC[C@H]1C[C@H](O)C1)c1cc(-c2ccc(Cl)cc2)nn(-c2cccc(F)c2)c1=O` [Example 372, 6-(4-chlorophenyl)-2-(3-fluorophenyl)-N-[(trans-3-hydroxycyclobutyl)-methyl]-3-oxo-2,3-dihydropyridazine-4-carboxamide]: the results for the IC50 on AHR [1] and against AHR [2] were 2.21e-07 M and greater than 2e-05 M, respectively.

With `CN(C)c1ccc(-c2cc(C(=O)N[C@H](CO)C(F)(F)F)c(=O)n(-c3cccc(F)c3)n2)cc1Cl` [Example 373, 6-[3-chloro-4-(dimethylamino)phenyl]-2-(3-fluorophenyl)-3-oxo-N-[(2R)-1,1,1-trifluoro-3-hydroxypropan-2-yl]-2,3-dihydropyridazine-4-carboxamide], the IC50 at AHR [1] is 1.69e-08 M; against AHR [2], greater than 2e-05 M.

On to `C[C@@H](CO)NC(=O)c1cc(-c2ccc(N(C)C)c(Cl)c2)nn(-c2cccc(F)c2)c1=O` [Example 377, 6-[3-chloro-4-(dimethylamino)phenyl]-2-(3-fluorophenyl)-N-[(2S)-1-hydroxypropan-2-yl]-3-oxo-2,3-dihydropyridazine-4-carboxamide], for which the results for the IC50 on AHR [1] and on AHR [2] were 1.36e-07 M and greater than 2e-05 M, respectively.

For the molecule `C[C@@H](NC(=O)c1cc(-c2ccc(OC(F)(F)F)cc2)nn(-c2cccc(F)c2)c1=O)C(C)(C)O` [Example 381, 2-(3-fluorophenyl)-N-[(2R)-3-hydroxy-3-methylbutan-2-yl]-3-oxo-6-[4-(trifluoromethoxy)phenyl]-2,3-dihydropyridazine-4-carboxamide], the IC50 at AHR [1] was 4.7e-08 M; against AHR [2] it was greater than 2e-05 M.

Turning to `CC(C)(O)CNC(=O)c1cc(-c2ccc(OC(F)(F)F)cc2)nn(-c2cccc(F)c2)c1=O` [Example 382, 2-(3-fluorophenyl)-N-(2-hydroxy-2-methylpropyl)-3-oxo-6-[4-(trifluoromethoxy)phenyl]-2,3-dihydropyridazine-4-carboxamide], the half-inhibitory concentration (IC50) was 9e-08 M on AHR [1] and greater than 2e-05 M at AHR [2].

Turning to `C[C@H](NC(=O)c1cc(-c2ccc(OC(F)F)cc2)nn(-c2cccc(F)c2)c1=O)C(C)(C)O` [Example 386, 6-[4-(difluoromethoxy)phenyl]-2-(3-fluorophenyl)-N-[(2S)-3-hydroxy-3-methylbutan-2-yl]-3-oxo-2,3-dihydropyridazine-4-carboxamide], the IC50 on AHR [1] was 6.5e-08 M; against AHR [2], greater than 2e-05 M.

With `CC(C)(C)OC(=O)N1C[C@H](O)[C@H](NC(=O)c2cc(-c3ccc(Cl)cc3)nn(-c3cccc(F)c3)c2=O)C1` [Example 387, tert-butyl (3R,4S)-3-({[6-(4-chlorophenyl)-2-(3-fluorophenyl)-3-oxo-2,3-dihydropyridazin-4-yl]carbonyl}amino)-4-hydroxypyrrolidine-1-carboxylate], the IC50 at AHR [1] is 3.5e-07 M; against AHR [2], greater than 2e-05 M.

Turning to `O=C(NCC(O)C(F)(F)F)c1cc(-c2ccc(Cl)cc2)nn(-c2cccc(C(F)F)c2)c1=O` (stereo not shown) [Example 389, 6-(4-chlorophenyl)-2-[3-(difluoromethyl)phenyl]-3-oxo-N-(3,3,3-trifluoro-2-hydroxypropyl)-2,3-dihydropyridazine-4-carboxamide], the IC50 was 8.8e-07 M at AHR [1] and greater than 2e-05 M at AHR [2].

`CC(C)OC[C@H](NC(=O)c1cc(-c2ccc(Cl)cc2)nn(-c2cccc(F)c2)c1=O)C(C)(C)O` [Example 390, 6-(4-chlorophenyl)-2-(3-fluorophenyl)-N-[(2S)-3-hydroxy-1-isopropoxy-3-methylbutan-2-yl]-3-oxo-2,3-dihydropyridazine-4-carboxamide]: the values for the IC50 against AHR [1] and against AHR [2] were 9.4e-07 M and greater than 2e-05 M, respectively.

In the case of `C[C@H](NC(=O)c1cc(-c2ccc(C(F)(F)F)cc2)nn(-c2cccc(F)c2)c1=O)C(C)(C)O` [Example 391, 2-(3-fluorophenyl)-N-[(2S)-3-hydroxy-3-methylbutan-2-yl]-3-oxo-6-[4-(trifluoromethyl)phenyl]-2,3-dihydropyridazine-4-carboxamide], the IC50 against AHR [1] is 1e-08 M; on AHR [2] it was greater than 2e-05 M.

Consider `O=C(N[C@H]1C[C@H](CO)C1)c1cc(-c2ccc(Cl)cc2)nn(-c2cccc(F)c2)c1=O` [Example 396, 6-(4-chlorophenyl)-2-(3-fluorophenyl)-N-[trans-3-(hydroxymethyl)cyclobutyl]-3-oxo-2,3-dihydropyridazine-4-carboxamide], for which the IC50 against AHR [1] was 1.3e-07 M; against AHR [2], greater than 2e-05 M.

As to `O=C(NC[C@H](O)C(F)(F)F)c1cc(-c2ccc(CF)cc2)nn(-c2cccc(F)c2)c1=O` [Example 397, 6-[4-(fluoromethyl)phenyl]-2-(3-fluorophenyl)-3-oxo-N-[(2S)-3,3,3-trifluoro-2-hydroxypropyl]-2,3-dihydropyridazine-4-carboxamide], the results for the 50% inhibitory concentration (IC50) against AHR [1] and on AHR [2] were 1.8e-07 M and greater than 2e-05 M, respectively.

As to `COC(=O)C(C)(C)CNC(=O)c1cc(-c2ccc(Cl)cc2)nn(-c2cccc(F)c2)c1=O` [Example 398, methyl 3-({[6-(4-chlorophenyl)-2-(3-fluorophenyl)-3-oxo-2,3-dihydropyridazin-4-yl]carbonyl}amino)-2,2-dimethylpropanoate], the figures for the IC50 at AHR [1] and at AHR [2] were 4.2e-07 M and greater than 2e-05 M, respectively.

As to `CC(C)(CNC(=O)c1cc(-c2ccc(Cl)cc2)nn(-c2cccc(F)c2)c1=O)C(=O)O` [Example 399, 3-({[6-(4-Chlorophenyl)-2-(3-fluorophenyl)-3-oxo-2,3-dihydropyridazin-4-yl]carbonyl}amino)-2,2-dimethylpropanoic acid], the values for the IC50 against AHR [1] and at AHR [2] were 7.2e-07 M and greater than 2e-05 M, respectively.

On to `C[C@@H](CO)NC(=O)c1cc(-c2ccc(Cl)cc2)nn(-c2cccc(C#N)c2)c1=O` [Example 400, 6-(4-chlorophenyl)-2-(3-cyanophenyl)-N-[(2S)-1-hydroxypropan-2-yl]-3-oxo-2,3-dihydropyridazine-4-carboxamide], for which the results for the IC50 against AHR [1] and against AHR [2] were 8e-07 M and greater than 2e-05 M, respectively.

For the molecule `CC(C)[C@@H](CO)NC(=O)c1cc(-c2ccc(Cl)c(F)c2)nn(-c2cc(F)cc(F)c2)c1=O` [Example 401, 6-(4-chloro-3-fluorophenyl)-2-(3,5-difluorophenyl)-N-[(2S)-1-hydroxy-3-methylbutan-2-yl]-3-oxo-2,3-dihydropyridazine-4-carboxamide], the IC50 on AHR [1] was 1e-07 M; against AHR [2], greater than 2e-05 M.

Consider `C[C@@H](CO)NC(=O)c1cc(-c2ccc(Cl)c(F)c2)nn(-c2cc(F)cc(F)c2)c1=O` [Example 402, 6-(4-chloro-3-fluorophenyl)-2-(3,5-difluorophenyl)-N-[(2S)-1-hydroxypropan-2-yl]-3-oxo-2,3-dihydropyridazine-4-carboxamide], for which the IC50 against AHR [1] was 3.7e-07 M; on AHR [2], greater than 2e-05 M.

For the molecule `O=C(NCC(O)C(F)(F)F)c1cc(-c2ccc(Cl)c(F)c2)nn(-c2cc(F)cc(F)c2)c1=O` (stereo not shown) [Example 403, 6-(4-chloro-3-fluorophenyl)-2-(3,5-difluorophenyl)-3-oxo-N-(3,3,3-trifluoro-2-hydroxypropyl)-2,3-dihydropyridazine-4-carboxamide], the IC50 against AHR [1] was 3.1e-07 M; against AHR [2], greater than 2e-05 M.
